Patent US4069337A, “2-Substituted-indole-1-lower-alkanecarboxamides having anti-secretory or anti-ulcer activity” (Sterling Drug Inc., priority 1976, dated 1978)
Read-outs that look alike come from different tables or passages of the source.

How the values were obtained:
[1] = tested on: secretion of gastric fluids; test: anti-secretory activity in pylorus-ligated rats (method of Shay et al.); type: in vivo, male albino Wistar rats
Description: In standard biological test procedures, described generally by Shay et al., Gastroenterology 5, 43 (1945) and 26, 906 (1954) and by Selmici et al., Acta Physiol. Acad. Sci. Hung. […] Anti-secretory activity was determined in male albino Wistar rats weighing approximately 180 g. using the method described by Shay et al. which is described as follows: the rats were divided into medicated groups of at least five rats each and control groups of ten rats. The rats were medicated orally once daily for 2 days prior to stomach ligation and once again immediately following ligation. All drugs were administered as the free base, and control rats received only the vehicle of medication. The rats were housed individually in wire cages, food was withdrawn 48 hours prior to surgery, and water was withdrawn at the time of surgery. Laparotomy was performed under light ether anesthesia, the pyloric-duodenal junction was ligated, and the wound was closed with metal clips and sprayed with a protective surgical dressing. Five hours following surgery, the rats were sacrificed, the stomach was removed, and the gastric juice collected. The gastric fluid was centrifuged, the total volume, color, and volume of solids were recorded. The pH of the gastric fluid was then determined on a Beckman pH meter, and the "free" and "total" hydrochloric acid content of each gastric sample was determined by titrating an aliquot of the gastric fluid (diluted to approximately 10 ml. with distilled water) by titrating with 0.1N sodium hydroxide against Toepfers reagent and phenolphthalein, respectively. By determining the milliequivalents of hydrochloric acid per milliliter of gastric juice and knowing the total volume of gastric juice secreted by each rat, the total acid output can be calculated. Since pH is a function of "free" acid, the activity of the test compounds can be evaluated by comparison of the mean "free" acid of medicated rats with the mean "free" acid of the controls, and the activity can thus be expressed in terms of percent inhibition of free acid.
(§1) Data obtained on administration of the compounds of formula I in rats in the anti-secretory and anti-ulcer tests described above are given in the table below. Unless noted otherwise, data were obtained on oral administration. Results in the anti-secretory activity tests are given in terms of the pH of the gastric fluid in the test animals and the percent inhibition of free acid, while results in the anti-ulcer test are given either in terms of the percent inhibition of ulcers or as a ratio representing the number of animals with ulcers (as the numerator) to the total number of animals in the test group (as the denominator). All doses are expressed in mg./kg.

[2] = tested on: reserpine-induced stomach ulceration; test: anti-ulcer activity, reserpine-induced ulcer test (method of Selmici et al.); type: in vivo, male, albino, Sprague-Dawley rats; conditions: oral; for inhibition in vivo at 100 mg/kg / Anti-Ulcer: ratio of number of animals with ulcers to total number of animals in the test group: 100 mg./kg.
Description: The anti-ulcer activity of the compounds was determined using the reserpine-induced anti-ulcer test method, described by Selmici et al., which is described briefly as follows: male, albino, Sprague-Dawley rats, weighing approximately 300 g., were divided into medicated and control groups of at least five rats each, and one positive control group of five rats medicated with a known drug at the active dose was run with each experiment. The rats were medicated forty-eight, twenty-four, and one hour before receiving an injection of reserpine. All test drugs were administered orally in terms of base, and the control rats received only the vehicle of medication. The rats were housed individually in wire cages, and food was withdrawn 24 hours prior to injection of reserpine, while water was allowed ad libitum. One hour following the third medication, 5.0 mg. of reserpine per kilogram of body weight in a concentration of 5 mg./ml. was injected intramuscularly in each rat. Eighteen hours after injection the rats were sacrificed, their stomachs removed, opened along the greater curvature, rinsed in warm saline, and pinned to a cork board for gross observation. The stomachs were examined for the number and size of ulcerations located in the glandular portion of the stomach with the aid of a one millimeter grid ocular with a 10x dissecting microscope. The degree of ulceration was arbitrarily graded according to the number and size of the ulcers as follows:
The points were added together and divided by the number of rats in each group to give an ulcer score, and the difference in the mean scores of the medicated and control group was expressed as percent inhibition of ulceration. Alternatively, the results can be expressed as a ratio of the total number of rats with any degree of ulceration (as the numerator) to the total number of rats in the test group (as the denominator).
as §1

[3] = Rattus norvegicus, 5 h, oral, 100 mg./kg., read-out: % Inhibition of Free Acid
[4] = Rattus norvegicus, intraduodenal, 5 h, i.d., 100 mg./kg., read-out: % Inhibition of Free Acid
[5] = Rattus norvegicus, ip, 5 h, i.p., 100 mg./kg., read-out: % Inhibition of Free Acid
[6] = Rattus norvegicus, po, 5 h, oral, 100 mg./kg., read-out: % Inhibition of Free Acid
[7] = Rattus norvegicus, sc, 5 h, s.c., 100 mg./kg., read-out: % Inhibition of Free Acid

Row | Compound | pH of the gastric fluid ([1]; oral, 100 mg./kg.) | inhibition in vivo at 100 mg/kg ([2]; Rattus norvegicus, 18 h) [%] | inhibition in vivo at 100 mg/kg [1, 6] [%] | inhibition in vivo at 25 mg/kg ([2]; Rattus norvegicus, 18 h) [%] | other results
1 | Cc1c(C=O)c2ccccc2n1CCCC(N)=O [Example 4J, γ-(2-Methyl-3-formyl-1-indole)butyramide] | 1.2 | 26 |  |  | inhibition in vivo at 100 mg/kg [1, 3]: 17%
2 | Cc1c(C(O)C(F)(F)F)c2ccccc2n1CCC(N)=O (stereo not drawn) [Example 8F, β-[2-Methyl-3-(2-trifluoro-1-hydroxyethyl)-1-indole]-propionamide] | 1.0 |  | 2 |  | inhibition in vivo at 100 mg/kg [1, 4]: 69%; inhibition in vivo at 100 mg/kg [1, 5]: 24%; inhibition in vivo at 100 mg/kg [1, 7]: 7%; pH of the gastric fluid ([1]; i.d., 100 mg./kg.): 1.5; pH of the gastric fluid ([1]; i.p., 100 mg./kg.): 1.2; pH of the gastric fluid ([1]; s.c., 100 mg./kg.): 1.0; inhibition in vivo at 50 mg/kg ([2]; Rattus norvegicus, 18 h): 45%
3 | CCc1c(C)n(CCC(N)=O)c2ccccc12 [Example 4E, β-(2-Methyl-3-ethyl-1-indole)propionamide] | 3.4 | 93 | 42 | 80 | inhibition in vivo at 6.25 mg/kg ([2]; Rattus norvegicus, 18 h): 60%; inhibition in vivo at 12.5 mg/kg ([2]; Rattus norvegicus, 18 h, 12.5 mg./kg.): 72%; inhibition in vivo at 50 mg/kg ([2]; Rattus norvegicus, 18 h): 94%
4 | Cc1c(C)n(CC(C)C(N)=O)c2ccccc12 (stereo not drawn) [Example 4H, β-(2,3-Dimethyl-1-indole) -α-methylpropionamide] | 5.7 | 89 | 100 |  | 
5 | Cc1c(CO)n(CCC(N)=O)c2ccccc12 [Example 8G, β-(2-hydroxymethyl-3-methyl-1-indole)propionamide] | 1.3 |  | 22 |  | inhibition in vivo at 100 mg/kg [1, 4]: 33%; inhibition in vivo at 100 mg/kg [1, 5]: 34%; pH of the gastric fluid ([1]; i.d., 100 mg./kg.): 1.4; pH of the gastric fluid ([1]; i.p., 100 mg./kg.): 1.7; Anti-Ulcer: ratio of number of animals with ulcers to total number of animals in the test group [2]: 3/5
6 | Cc1c(-c2ccccc2)n(CCC(N)=O)c2ccccc12 [Example 4M, β-(2-Phenyl-3-methyl-1-indole)propionamide] | 1.1 |  | 20 |  | inhibition in vivo at 100 mg/kg [1, 4]: 34%; inhibition in vivo at 100 mg/kg [1, 5]: 43%; pH of the gastric fluid ([1]; i.d., 100 mg./kg.): 1.2; pH of the gastric fluid ([1]; i.p., 100 mg./kg.): 1.7; Anti-Ulcer: ratio of number of animals with ulcers to total number of animals in the test group [2]: 0/5
7 | Cc1c(C(=O)C(F)(F)F)c2ccccc2n1CCC(N)=O [Example 4L, β-(2-Methyl-3-trifluoroacetyl-1-indole)propionamide] | 1.8 |  |  |  | inhibition in vivo at 100 mg/kg [1, 3]: 46%; inhibition in vivo at 100 mg/kg [1, 4]: 65%; inhibition in vivo at 100 mg/kg [1, 5]: 78%; pH of the gastric fluid ([1]; i.d., 100 mg./kg.): 2.5; pH of the gastric fluid ([1]; i.p., 100 mg./kg.): 3.8
8 | Cc1c(C)n(CCC(N)=O)c2ccc(Cl)cc12 [Example 4B, β-(2,3-Dimethyl-5-chloro-1-indole)propionamide] | 3.6 |  | 88 | 95 | 
9 | Cc1c(C)n(CCC(=O)NCCCO)c2ccccc12 [Example 3E, β-(2,3-Dimethyl-1-indole)-N-(3-hydroxypropyl)propionamide] | 1.4 |  | 34 | 51 | 
10 | Cc1c(C)n(CCC(N)=O)c2ccc(F)cc12 [Example 4C, β-(2,3-Dimethyl-5-fluoro-1-indole)propionamide] | 5.9 |  | 97 | 94 | 
11 | CCc1c(C)c2ccccc2n1CCC(N)=O [Example 4D, β-(2-Ethyl-3-methyl-1-indole)propionamide] | 4.1 | 97 | 88 |  | 
12 | NC(=O)CCn1c(-c2ccccc2)c(CO)c2ccccc21 [Example 8D, β-(2-Phenyl-3-hydroxymethyl-1-indole)propionamide] | 1.5 |  | 28 |  | inhibition in vivo at 100 mg/kg [1, 7]: 38%; pH of the gastric fluid ([1]; s.c., 100 mg./kg.): 1.4; Anti-Ulcer: ratio of number of animals with ulcers to total number of animals in the test group [2]: 0/5
13 | Cc1c(C)n(CCC(=O)NCCO)c2ccccc12 [Example 3D, β-(2,3-Dimethyl-1-indole)-N-(2-hydroxyethyl)propionamide] | 1.2 |  |  | 48 | 
14 | Cc1c(C)n(CCC(N)=S)c2ccccc12 [Example 7B, β(2,3-dimethyl-1-indole)thiopropionamide] | 2.2 | 100 | 60 |  | 
15 | Cc1c(CO)c2ccccc2n1CCCC(N)=O [Example 8B, γ-(2-Methyl-3-hydroxymethyl-1-indole)butyramide] | 1.3 | 0 | 5 |  | inhibition in vivo at 100 mg/kg [1, 4]: 5%; inhibition in vivo at 100 mg/kg [1, 5]: 62%; inhibition in vivo at 100 mg/kg [1, 7]: 12%; pH of the gastric fluid ([1]; i.d., 100 mg./kg.): 1.2; pH of the gastric fluid ([1]; i.p., 100 mg./kg.): 2.4; pH of the gastric fluid ([1]; s.c., 100 mg./kg.): 1.2
16 | Cc1c(C=O)c2ccccc2n1CCC(N)=O [Example 4F, β-(2-Methyl-3-formyl-1-indole)propionamide] | 1.2 | 9 |  |  | inhibition in vivo at 100 mg/kg [1, 3]: 0%
17 | Cc1c(C)n(CCCC(N)=O)c2ccccc12 [Example 1D, γ-(2,3-Dimethyl-1-indole)butyramide] | 6.2 | 99 | 100 | 72 | inhibition in vivo at 6.25 mg/kg ([1]; Rattus norvegicus, po, 5 h, oral, 6.25 mg./kg., read-out: % Inhibition of Free Acid): 14%; inhibition in vivo at 25 mg/kg ([1]; Rattus norvegicus, po, 5 h, oral, 25 mg./kg., read-out: % Inhibition of Free Acid): 38%; pH of the gastric fluid ([1]; oral, 6.25 mg./kg.): 1.3; pH of the gastric fluid ([1]; oral, 25 mg./kg.): 1.6; inhibition in vivo at 0.8 mg/kg ([2]; Rattus norvegicus, 18 h, 0.8 mg./kg.): 38%; inhibition in vivo at 1.56 mg/kg ([2]; Rattus norvegicus, 18 h, 1.56 mg./kg.): 38%; inhibition in vivo at 6.25 mg/kg ([2]; Rattus norvegicus, 18 h): 0%
